Test results as given in the supplement of paper PMC10307832.

Legend:
Experiment in all cases: relative viability (nuclei count vs DMSO), 5 days (fraction); higher = more cells survive
HARA = system: HARA
Outline: (§1)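 Cells from lung cancer lines were seeded into 1536-well plates and, one day later, dosed by pin tool. Treatments were either a single drug or a fixed dose of an anchor drug with five library-drug doses (not always all listed) in √10 steps. After 5 days, nuclei were stained in a one-step fixation (final 0.05% Triton X-100, 1% formaldehyde, 1 ug/ml Hoechst) and counted on 4× images, and relative viability is the treated-to-vehicle nuclei ratio, as the median of duplicate plates.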

CAL-12T = system: CAL-12T
Outline: as §1

COR-L 105 = system: COR-L 105
Outline: as §1

HCC-827 = system: HCC-827
Outline: as §1

HOP-62 = system: HOP-62
Outline: as §1

EMC-BAC-2 = system: EMC-BAC-2
Outline: as §1

NCI-H1437 = system: NCI-H1437
Outline: as §1

LCLC-103H = system: LCLC-103H
Outline: as §1

NCI-H727 = system: NCI-H727
Outline: as §1

NCI-H2228 = system: NCI-H2228
Outline: as §1

A-427 = system: A-427
Outline: as §1

NCI-H1792 = system: NCI-H1792
Outline: as §1

NCI-H23 = system: NCI-H23
Outline: as §1

NCI-H460 = system: NCI-H460
Outline: as §1

SW 1573 = system: SW 1573
Outline: as §1

NCI-H1915 = system: NCI-H1915
Outline: as §1

NCI-H2009 = system: NCI-H2009
Outline: as §1

SK-LU-1 = system: SK-LU-1
Outline: as §1

NCI-H1395 = system: NCI-H1395
Outline: as §1

NCI-H1755 = system: NCI-H1755
Outline: as §1

NCI-H522 = system: NCI-H522
Outline: as §1

In the case of Nc1ccn([C@@H]2O[C@H](CO)[C@@H](O)[C@@H]2O)c(=O)n1 [Cytarabine] + CCNC(=O)c1noc(-c2cc(C(C)C)c(O)cc2O)c1-c1ccc(CN2CCOCC2)cc1 [Luminespib] (partner 0.01 µM), the relative viability (HARA; first compound 0.005 µM) is reported as 0.898, the relative viability (HARA; first compound 0.01581 µM) is reported as 0.303 and the relative viability (HARA; first compound 0.05 µM) is reported as 0.27. It also gave a relative viability (HARA; first compound 0.1581 µM) of 0.1, a relative viability (HARA; first compound 0.5 µM) of 0.0906 and a relative viability (CAL-12T; first compound 0.005 µM) of 0.227. For the same compound, the relative viability (CAL-12T; first compound 0.01581 µM) was 0.288, the relative viability (CAL-12T; first compound 0.05 µM) was 0.64 and the relative viability (CAL-12T; first compound 0.1581 µM) was 0.217. It also gave a relative viability (CAL-12T; first compound 0.5 µM) of 0.178, a relative viability (COR-L 105; first compound 0.005 µM) of 0.783 and a relative viability (COR-L 105; first compound 0.01581 µM) of 0.667. It also gave a relative viability (COR-L 105; first compound 0.05 µM) of 0.739, a relative viability (COR-L 105; first compound 0.1581 µM) of 0.405 and a relative viability (COR-L 105; first compound 0.5 µM) of 0.278. It also gave a relative viability (HCC-827; first compound 0.005 µM) of 0.591, a relative viability (HCC-827; first compound 0.01581 µM) of 0.396 and a relative viability (HCC-827; first compound 0.05 µM) of 0.336. For the same compound, the relative viability (HCC-827; first compound 0.1581 µM) was 0.154, the relative viability (HCC-827; first compound 0.5 µM) was 0.144 and the relative viability (HOP-62; first compound 0.005 µM) was 0.679. For the same compound, the relative viability (HOP-62; first compound 0.01581 µM) was 0.49, the relative viability (HOP-62; first compound 0.05 µM) was 0.285 and the relative viability (HOP-62; first compound 0.1581 µM) was 0.135. For the same compound, the relative viability (HOP-62; first compound 0.5 µM) was 0.135, the relative viability (EMC-BAC-2; first compound 0.005 µM) was 0.885 and the relative viability (EMC-BAC-2; first compound 0.01581 µM) was 0.742. For the same compound, the relative viability (EMC-BAC-2; first compound 0.05 µM) was 0.346, the relative viability (EMC-BAC-2; first compound 0.1581 µM) was 0.259 and the relative viability (EMC-BAC-2; first compound 0.5 µM) was 0.244. For the same compound, the relative viability (NCI-H1437; first compound 0.005 µM) was 0.86, the relative viability (NCI-H1437; first compound 0.01581 µM) was 0.852 and the relative viability (NCI-H1437; first compound 0.05 µM) was 0.571. For the same compound, the relative viability (NCI-H1437; first compound 0.1581 µM) was 0.301, the relative viability (NCI-H1437; first compound 0.5 µM) was 0.23 and the relative viability (LCLC-103H; first compound 0.005 µM) was 0.96. The relative viability (LCLC-103H; first compound 0.01581 µM) was 1.05, the relative viability (LCLC-103H; first compound 0.05 µM) was 1.03 and the relative viability (LCLC-103H; first compound 0.1581 µM) was 0.909. For the same compound, the relative viability (LCLC-103H; first compound 0.5 µM) was 0.947, the relative viability (NCI-H727; first compound 0.005 µM) was 0.22 and the relative viability (NCI-H727; first compound 0.01581 µM) was 0.527. It also gave a relative viability (NCI-H727; first compound 0.05 µM) of 0.475, a relative viability (NCI-H727; first compound 0.1581 µM) of 0.341 and a relative viability (NCI-H727; first compound 0.5 µM) of 0.309. The relative viability (NCI-H2228; first compound 0.005 µM) was 0.141, the relative viability (NCI-H2228; first compound 0.01581 µM) was 0.121 and the relative viability (NCI-H2228; first compound 0.05 µM) was 0.141. It also gave a relative viability (NCI-H2228; first compound 0.1581 µM) of 0.116, a relative viability (NCI-H2228; first compound 0.5 µM) of 0.12 and a relative viability (A-427; first compound 0.005 µM) of 0.708. The relative viability (A-427; first compound 0.01581 µM) was 0.425, the relative viability (A-427; first compound 0.05 µM) was 0.238 and the relative viability (A-427; first compound 0.1581 µM) was 0.186. It also gave a relative viability (A-427; first compound 0.5 µM) of 0.161, a relative viability (NCI-H1792; first compound 0.01581 µM) of 0.431 and a relative viability (NCI-H1792; first compound 0.05 µM) of 0.366. For the same compound, the relative viability (NCI-H1792; first compound 0.1581 µM) was 0.313, the relative viability (NCI-H1792; first compound 0.5 µM) was 0.271 and the relative viability (NCI-H23; first compound 0.005 µM) was 0.179. For the same compound, the relative viability (NCI-H23; first compound 0.01581 µM) was 0.192, the relative viability (NCI-H23; first compound 0.05 µM) was 0.197 and the relative viability (NCI-H23; first compound 0.1581 µM) was 0.199. It also gave a relative viability (NCI-H23; first compound 0.5 µM) of 0.188, a relative viability (NCI-H460; first compound 0.005 µM) of 0.036 and a relative viability (NCI-H460; first compound 0.01581 µM) of 0.0332. For the same compound, the relative viability (NCI-H460; first compound 0.05 µM) was 0.0248, the relative viability (NCI-H460; first compound 0.1581 µM) was 0.0172 and the relative viability (NCI-H460; first compound 0.5 µM) was 0.0144. The relative viability (SW 1573; first compound 0.005 µM) was 0.375, the relative viability (SW 1573; first compound 0.01581 µM) was 0.228 and the relative viability (SW 1573; first compound 0.05 µM) was 0.285. The relative viability (SW 1573; first compound 0.1581 µM) was 0.164, the relative viability (SW 1573; first compound 0.5 µM) was 0.0905 and the relative viability (NCI-H1915; first compound 0.005 µM) was 0.622. The relative viability (NCI-H1915; first compound 0.01581 µM) was 0.773, the relative viability (NCI-H1915; first compound 0.05 µM) was 0.871 and the relative viability (NCI-H1915; first compound 0.1581 µM) was 0.486. For the same compound, the relative viability (NCI-H1915; first compound 0.5 µM) was 0.435, the relative viability (NCI-H2009; first compound 0.005 µM) was 0.995 and the relative viability (NCI-H2009; first compound 0.01581 µM) was 1.06. It also gave a relative viability (NCI-H2009; first compound 0.05 µM) of 1.04, a relative viability (NCI-H2009; first compound 0.1581 µM) of 0.775 and a relative viability (NCI-H2009; first compound 0.5 µM) of 0.239. It also gave a relative viability (SK-LU-1; first compound 0.005 µM) of 0.178, a relative viability (SK-LU-1; first compound 0.01581 µM) of 0.183 and a relative viability (SK-LU-1; first compound 0.05 µM) of 0.214. For the same compound, the relative viability (SK-LU-1; first compound 0.1581 µM) was 0.185, the relative viability (SK-LU-1; first compound 0.5 µM) was 0.185 and the relative viability (NCI-H1395; first compound 0.005 µM) was 0.544. For the same compound, the relative viability (NCI-H1395; first compound 0.01581 µM) was 0.61, the relative viability (NCI-H1395; first compound 0.05 µM) was 0.437 and the relative viability (NCI-H1395; first compound 0.1581 µM) was 0.366. The relative viability (NCI-H1395; first compound 0.5 µM) was 0.346, the relative viability (NCI-H1755; first compound 0.005 µM) was 0.879 and the relative viability (NCI-H1755; first compound 0.01581 µM) was 0.222. The relative viability (NCI-H1755; first compound 0.05 µM) was 0.328, the relative viability (NCI-H1755; first compound 0.1581 µM) was 0.274 and the relative viability (NCI-H1755; first compound 0.5 µM) was 0.378. For the same compound, the relative viability (NCI-H522; first compound 0.005 µM) was 1.09, the relative viability (NCI-H522; first compound 0.01581 µM) was 0.953 and the relative viability (NCI-H522; first compound 0.05 µM) was 0.968. It also gave a relative viability (NCI-H522; first compound 0.1581 µM) of 0.422 and a relative viability (NCI-H522; first compound 0.5 µM) of 0.438.
